Target: T1, RET (Homo sapiens, UniProt P07949)
T1 construct: purchased Upstate 14-570MG
Assay: Inhibition of RET kinase activity, recombinant RET method (Kinase-Glo)
Type: biochemical
Conditions: RET 2 μg/ml, poly-EY4 substrate, 20 μM ATP, two hours at 30° C.
Method: The inhibition of the kinase activity of the compounds of the invention is assessed by measuring their IC50 on RET.
where: • Y is the value of the luminescence • X is the logarithm of the concentration of the compound • Bottom is the minimum Y value • Top is the maximum Y value • LogIC50 is the value of X when Y is 50% from Top—Bottom.
The quantity of RET required is 2 μg/ml.
The following buffer is used for dilution of RET: 20 mM MOPS/NaOH pH7.0, 1 mM EDTA, 5% glycerol, 0.01% Brij35 (Sigma B4184), 0.1% 2-mercaptoethanol, 1 mg/ml BSA (Sigma A3059-10G).
The dilution of the compounds of the invention is distributed so as to obtain a scale of final concentrations between 10 nM and 30 μM.
After incubation of the reaction mixture for two hours at 30° C., the level of ATP that remains is assayed using the Kinase-Glo Luminescent Kinase Assay (Promega #V6712) according to the conditions recommended by the supplier. The luminescence induced is read in a plate reader (Envision-Perkin Elmer).

T1 sequence (P07949 29-1114): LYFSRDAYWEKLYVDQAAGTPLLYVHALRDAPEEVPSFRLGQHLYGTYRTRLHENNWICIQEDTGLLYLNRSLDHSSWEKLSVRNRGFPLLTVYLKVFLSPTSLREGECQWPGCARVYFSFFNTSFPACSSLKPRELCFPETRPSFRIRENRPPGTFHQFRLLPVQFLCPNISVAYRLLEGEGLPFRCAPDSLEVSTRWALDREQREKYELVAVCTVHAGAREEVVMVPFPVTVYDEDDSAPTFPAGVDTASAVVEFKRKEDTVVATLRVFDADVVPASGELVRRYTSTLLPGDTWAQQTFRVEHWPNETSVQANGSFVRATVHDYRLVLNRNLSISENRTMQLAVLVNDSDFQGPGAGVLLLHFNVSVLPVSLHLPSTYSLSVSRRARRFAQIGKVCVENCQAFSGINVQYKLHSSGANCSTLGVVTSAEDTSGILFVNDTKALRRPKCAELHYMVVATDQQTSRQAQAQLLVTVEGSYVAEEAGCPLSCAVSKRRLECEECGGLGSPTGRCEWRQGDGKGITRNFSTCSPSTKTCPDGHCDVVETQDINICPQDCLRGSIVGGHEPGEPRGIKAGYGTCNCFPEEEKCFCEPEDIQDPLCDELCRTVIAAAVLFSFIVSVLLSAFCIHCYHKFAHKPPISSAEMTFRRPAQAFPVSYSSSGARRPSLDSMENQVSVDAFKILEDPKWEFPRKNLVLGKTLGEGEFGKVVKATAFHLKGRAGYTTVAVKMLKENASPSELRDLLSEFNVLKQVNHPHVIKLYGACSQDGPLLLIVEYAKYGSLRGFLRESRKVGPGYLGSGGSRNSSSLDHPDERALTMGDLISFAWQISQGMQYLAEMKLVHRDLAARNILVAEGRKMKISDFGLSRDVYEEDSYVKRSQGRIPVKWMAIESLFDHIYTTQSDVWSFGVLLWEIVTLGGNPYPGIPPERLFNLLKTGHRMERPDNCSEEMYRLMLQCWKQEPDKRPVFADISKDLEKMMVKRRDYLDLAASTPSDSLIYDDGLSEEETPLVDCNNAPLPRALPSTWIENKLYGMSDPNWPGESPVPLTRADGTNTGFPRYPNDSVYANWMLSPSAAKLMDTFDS

| Structure (SMILES) | IC50 [nM] |
| --- | --- |
| CCCOC(=O)c1c[nH]c2c(=O)[nH]c3ccc(S(=O)(=O)N4CCCC(C(N)=O)C4)cc3c12 (stereo not shown) [Compound 179, 8-(3-Carbamoyl-piperidine-1-sulfonyl)-4-oxo-4,5-dihydro-3H-pyrrolo[2,3-c]quinoline-1-propyl carboxylate] | 100 to 1000 |
| CCOC(=O)c1c[nH]c2c(=O)[nH]c3ccc(-c4csc(NNc5ccccc5)n4)cc3c12 [Compound 280, 4-Oxo-8-[2-(N′-phenyl-hydrazino)-thiazol-4-yl]-4,5-dihydro-3H-pyrrolo[2,3-c]quinoline-1-ethyl carboxylate] | 1000 to 10000 |
| CCOC(=O)c1c[nH]c2c(=O)[nH]c3ccc(NS(=O)(=O)c4ccc(Br)cc4)cc3c12 [Compound 46, 8-(4-Bromo-benzenesulfonylamino)-4-oxo-4,5-dihydro-3H-pyrrolo[2,3-c]quinoline-1-ethyl carboxylate] | 100 to 1000 |
| CCCOC(=O)c1c[nH]c2c(=O)[nH]c3ccc(S(=O)(=O)N(C)CC(=O)OC(C)(C)C)cc3c12 [Compound 183, 8-(tert-Butoxycarbonylmethyl-methyl-sulfamoyl)-4-oxo-4,5-dihydro-3H-pyrrolo[2,3-c]quinoline-1-propyl carboxylate] | 1000 to 10000 |
| CCOC(=O)c1c[nH]c2c(=O)[nH]c3ccc(S(=O)(=O)N4CCC[C@H]4CN4CCCC4)cc3c12 [Compound 163, (S)-4-Oxo-8-(2-pyrrolidin-1-ylmethyl-pyrrolidine-1-sulfonyl)-4,5-dihydro-3H-pyrrolo[2,3-c]quinoline-1-ethyl carboxylate] | 100 to 1000 |
| CCOC(=O)c1c[nH]c2c(=O)[nH]c3ccc(-c4csc(Nc5ccccc5Cl)n4)cc3c12 [Compound 272, 8-[2-(2-Chlorophenylamino)-thiazol-4-yl]-4-oxo-4,5-dihydro-3H-pyrrolo[2,3-c]quinoline-1-ethyl carboxylate] | 1000 to 10000 |
| C#CCN(CCN(C)C(=O)OC(C)(C)C)S(=O)(=O)c1ccc2[nH]c(=O)c3[nH]cc(C(=O)OCCC)c3c2c1 [Compound 157, 8-{[2-(tert-Butoxycarbonyl-methyl-amino)-ethyl]-prop-2-ynyl-sulfamoyl}-4-oxo-4,5-dihydro-3H-pyrrolo[2,3-c]quinoline-1-propyl carboxylate] | < 100 |
| CCOC(=O)c1c[nH]c2c(=O)[nH]c3ccc(S(=O)(=O)NC4CC5CCC(C4)N5)cc3c12 (stereo not shown) [Compound 122, 8-(8-Aza-bicyclo[3.2.1]oct-3-ylsulfamoyl)-4-oxo-4,5-dihydro-3H-pyrrolo[2,3-c]quinoline-1-ethyl carboxylate] | < 100 |
| CCOC(=O)c1c[nH]c2c(=O)[nH]c3ccc(-c4ccc(NC(=O)OC(C)(C)C)cc4)cc3c12 [Compound 243, 8-(4-tert-Butoxycarbonylaminophenyl)-4-oxo-4,5-dihydro-3H-pyrrolo[2,3-c]quinoline-1-ethyl carboxylate] | 1000 to 10000 |
| CCOC(=O)c1c[nH]c2c(=O)[nH]c3ccc(S(=O)(=O)Cc4c(Cl)cccc4Cl)cc3c12 [Compound 36, 8-(2,6-Dichlorophenylmethanesulfonyl)-4-oxo-4,5-dihydro-3H-pyrrolo[2,3-c]quinoline-1-ethyl carboxylate] | 100 to 1000 |
| CCOC(=O)c1c[nH]c2c(=O)[nH]c3ccc(NS(=O)(=O)c4cccc(OC)c4)cc3c12 [Compound 51, 8-(3-Methoxy-benzenesulfonylamino)-4-oxo-4,5-dihydro-3H-pyrrolo[2,3-c]quinoline-1-ethyl carboxylate] | 1000 to 10000 |
| CCOC(=O)c1c[nH]c2c(=O)[nH]c3ccc(-c4csc(CSc5ccccc5)n4)cc3c12 [Compound 276, 4-Oxo-8-(2-phenylsulfanylmethyl-thiazol-4-yl)-4,5-dihydro-3H-pyrrolo[2,3-c]quinoline-1-ethyl carboxylate] | 100 to 1000 |
| CCOC(=O)c1c[nH]c2c(=O)[nH]c3ccc(S(=O)(=O)Nc4cc(F)cc(F)c4)cc3c12 [Compound 19, 8-(3,5-Difluorophenylsulfamoyl)-4-oxo-4,5-dihydro-3H-pyrrolo[2,3-c]quinoline-1-ethyl carboxylate] | 100 to 1000 |
| CCCOC(=O)c1c[nH]c2c(=O)[nH]c3ccc(S(=O)(=O)N(C[C@H](C)NC(=O)OC(C)(C)C)C4CC4)cc3c12 [Compound 152, (S)-8-[(2-tert-Butoxycarbonylamino-propyl)-cyclopropyl-sulfamoyl]-4-oxo-4,5-dihydro-3H-pyrrolo[2,3-c]quinoline 1-propyl carboxylate] | 100 to 1000 |
| O=C(NCc1ccncc1)c1c[nH]c2c(=O)[nH]c3ccccc3c12 [Compound 86, N-(Pyridin-4-ylmethyl)-4-oxo-4,5-dihydro-3H-pyrrolo[2,3-c]quinoline-1-carboxamide] | 10000 to 100000 |
| CCCOC(=O)c1c[nH]c2c(=O)[nH]c3cc(OC)c(S(=O)(=O)N(C)C4CC4)cc3c12 [Compound 188] | 1000 to 10000 |

Other lines, results leading:

| IC50 [nM] | Structure (SMILES) |
| --- | --- |
| 1000 to 10000 | CCOC(=O)c1c[nH]c2c(=O)[nH]c3ccc(NS(=O)(=O)c4ccc(C(C)=O)cc4)cc3c12 [Compound 55, 8-(4-Acetyl-benzenesulfonylamino)-4-oxo-4,5-dihydro-3H-pyrrolo[2,3-c]quinoline-1-ethyl carboxylate] |
| 100 to 1000 | CCOC(=O)c1c[nH]c2c(=O)[nH]c3ccc(S(=O)(=O)Nc4cccnc4)cc3c12 [Compound 23, 4-Oxo-8-(pyridin-3-ylsulfamoyl)-4,5-dihydro-3H-pyrrolo[2,3-c]quinoline-1-ethyl carboxylate] |
| 100 to 1000 | CCCOC(=O)c1c[nH]c2c(=O)[nH]c3cc(F)c(S(=O)(=O)N(C)C)cc3c12 [Compound 186, 8-Dimethylsulfamoyl-7-fluoro-4-oxo-4,5-dihydro-3H-pyrrolo[2,3-c]quinoline-1-propyl carboxylate] |
| 1000 to 10000 | CCOC(=O)c1c[nH]c2c(=O)[nH]c3cc(OC)c(OC)cc3c12 [Compound 72, 7,8-Dimethoxy-4-oxo-4,5-dihydro-3H-pyrrolo[2,3-c]quinoline-1-ethyl carboxylate] |
| 100 to 1000 | CCOC(=O)c1c[nH]c2c(=O)[nH]c3ccc(S(=O)(=O)Cc4ccccn4)cc3c12 [Compound 196, 4-Oxo-8-(pyridin-2-ylmethanesulfonyl)-4,5-dihydro-3H-pyrrolo[2,3-c]quinoline-1-ethyl carboxylate] |
| 100 to 1000 | CCOC(=O)c1c[nH]c2c(=O)[nH]c3ccc(-c4ccccc4Cl)cc3c12 [Compound 229, 8-(2-Chlorophenyl)-4-oxo-4,5-dihydro-3H-pyrrolo[2,3-c]quinoline-1-ethyl carboxylate] |
| 1000 to 10000 | CCOC(=O)c1c[nH]c2c(=O)[nH]c3ccc(NC(C)=O)cc3c12 [Compound 61, 8-Acetylamino-4-oxo-4,5-dihydro-3H-pyrrolo[2,3-c]quinoline-1 ethyl carboxylate] |
| 10000 to 100000 | CCOC(=O)c1c[nH]c2c(=O)[nH]c3ccc(-c4ccc(C#N)cc4)cc3c12 [Compound 247, 8-(4-Cyano-phenyl)-4-oxo-4,5-dihydro-3H-pyrrolo[2,3-c]quinoline-1-ethyl carboxylate] |
| 100 to 1000 | CCOC(=O)c1c[nH]c2c(=O)[nH]c3ccc(C(=O)/C=C/N(C)C)cc3c12 [Compound 217, 8-(3-Dimethylamino-acryloyl)-4-oxo-4,5-dihydro-3H-pyrrolo[2,3-c]quinoline-1-ethyl carboxylate] |
| 100 to 1000 | CCOC(=O)c1c[nH]c2c(=O)[nH]c3ccc(Sc4cccc(N)c4)cc3c12 [Compound 224, 8-(3-Aminophenylsulfanyl)-4-oxo-4,5-dihydro-3H-pyrrolo[2,3-c]quinoline-1-ethyl carboxylate] |
| 100 to 1000 | CCOC(=O)c1c[nH]c2c(=O)[nH]c3ccc(-c4cccc(NC(C)=O)c4)cc3c12 [Compound 236, 8-(3-Acetylaminophenyl)-4-oxo-4,5-dihydro-3H-pyrrolo[2,3-c]quinoline-1-ethyl carboxylate] |
| 100 to 1000 | CCOC(=O)c1c[nH]c2c(=O)[nH]c3ccc(NS(=O)(=O)c4ccc(C)cc4)cc3c12 [Compound 47, 4-Oxo-8-(4-toluenesulfonylamino)-4,5-dihydro-3H-pyrrolo[2,3-c]quinoline-1-ethyl carboxylate] |
| 100 to 1000 | CCOC(=O)c1c[nH]c2c(=O)[nH]c3ccc(C#CC(C)(C)O)cc3c12 [Compound 204, 8-(3-Hydroxy-3-methyl-but-1-ynyl)-4-oxo-4,5-dihydro-3H-pyrrolo[2,3-c]quinoline-1-ethyl carboxylate] |
| 1000 to 10000 | C#Cc1ccc2[nH]c(=O)c3[nH]cc(C(=O)OCC)c3c2c1 [Compound 199, 8-Ethynyl-4-oxo-4,5-dihydro-3H-pyrrolo[2,3-c]quinoline-1-ethyl carboxylate] |
| 100 to 1000 | CCOC(=O)c1c[nH]c2c(=O)[nH]c3ccc(N(C)S(C)(=O)=O)cc3c12 [Compound 59, 8-(Methanesulfonyl-methyl-amino)-4-oxo-4,5-dihydro-3H-pyrrolo[2,3-c]quinoline-1-ethyl carboxylate] |
| 100 to 1000 | CCOC(=O)c1c[nH]c2c(=O)[nH]c3ccc(CCc4ccccc4)cc3c12 [Compound 207, 4-Oxo-8-phenethyl-4,5-dihydro-3H-pyrrolo[2,3-c]quinoline-1-ethyl carboxylate] |
| 100 to 1000 | CCCOC(=O)c1c[nH]c2c(=O)[nH]c3ccc(S(=O)(=O)N(C)CCC#N)cc3c12 [Compound 126, 8-[(2-Cyano-ethyl)-methyl-sulfamoyl]-4-oxo-4,5-dihydro-3H-pyrrolo[2,3-c]quinoline-1-propyl carboxylate] |
| 1000 to 10000 | CCOC(=O)c1c[nH]c2c(=O)[nH]c3ccc(/C=C/C(=O)NCc4ccccc4)cc3c12 [Compound 68, 8-(2-Benzylcarbamoyl-vinyl)-4-oxo-4,5-dihydro-3H-pyrrolo[2,3-c]quinoline-1-ethyl carboxylate] |

Reference: US8426437B2, “Pyrroloquinoline derivatives and their use as protein kinases inhibitors” (Pierre Fabre Medicament, priority 2005, dated 2013)
